# According to paper PMC6116672, “Discovery of (phenylureido)piperidinyl benzamides as prospective inhibitors of bacterial autolysin E from Staphylococcus aureus” (Journal of Enzyme Inhibition and Medicinal Chemistry, 2018):
# Target: AtlE (Staphylococcus aureus, UniProt A0A0H3JT72)
# Assay: SPR binding affinity to AtlE (steady state 1:1 model)
# Description: SPR experiments were performed using a Biacore T100 (GE Healthcare) equipped with a Series S sensor chip CM5 (GE Healthcare). PBS buffer (67 mM Na2HPO4, 12.5 mM KH2PO4, 70 mM NaCl, 0,05% P20, pH 7.4) was used for immobilisation of the protein. AtlE was produced as previously described[1] and attached to the surface of the chip by amine coupling. The surface of flow cells 1 and 2 was initially activated with a 10-min pulse of a 1:1 mixture of 0.4 M 1-ethyl-3–(3-dimethylaminopropyl)-carbodiimide hydrochloride and 0.1 M N-hydroxysuccinimide, according to manufacturer recommendations. AtlE was diluted into 10 mM sodium acetate buffer, pH 5.8, to a final concentration of 100 µg/mL, and injected twice for 180 s over the second flow cell. Both flow cells were blocked with a 7-min pulse of 1.0 M ethanolamine. The final immobilisation level was about 4100 RU. Screening was run at 25 °C using PBS (67 mM Na2HPO4, 12.5 mM KH2PO4 pH 7.4, 70 mM NaCl, 0.05% P20) supplemented with 1% or 5% DMSO (Merck) as the running buffer. Selected compounds from the virtual screening studies were tested at two different concentrations: 40 and 400 µM. Each compound was injected for 1 min at a flow-rate of 30 µL/min, and the dissociation was monitored for 30 s. […] KD values were determined by fitting of the data to a 1:1 steady state binding model.
# Chain of AtlE (A0A0H3JT72 entry or part of it): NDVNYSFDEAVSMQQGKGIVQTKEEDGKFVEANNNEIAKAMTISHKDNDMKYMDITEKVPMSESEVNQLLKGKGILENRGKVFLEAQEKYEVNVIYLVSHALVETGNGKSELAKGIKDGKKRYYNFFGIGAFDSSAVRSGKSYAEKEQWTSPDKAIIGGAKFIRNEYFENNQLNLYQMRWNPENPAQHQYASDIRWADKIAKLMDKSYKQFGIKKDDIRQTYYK
smiles,measurement,value
O=C(Nc1cccc(Cl)c1)NC1CCN(c2cccc(C(=O)N3CCc4ccccc4C3)c2)CC1 [Compound 10],Kd,1.9 µM
